# Source: ChEMBL document CHEMBL5678818, “Discovery of potent SOS1 inhibitors that block RAS activation via disruption of the RAS-SOS1 interaction” (Proc Natl Acad Sci U S A, 2019)
# Assays:
# [1] = target: RAC-alpha serine/threonine-protein kinase (Homo sapiens) (UniProt P31749); test: Inhibition of AKT1 (unknown origin) assessed as residual activity at 100 nM by KINOMEscan analysis relative to control
# [2] = target: Ribosomal protein S6 kinase alpha-6 (Homo sapiens) (UniProt Q9UK32); test: Inhibition of C-terminal RSK4 kinetic domain 2 (unknown origin) assessed as residual activity at 100 nM by KINOMEscan analysis relative to control
# Chain of Ribosomal protein S6 kinase alpha-6 (Homo sapiens) (Q9UK32 whole entry, the tested form may be a part): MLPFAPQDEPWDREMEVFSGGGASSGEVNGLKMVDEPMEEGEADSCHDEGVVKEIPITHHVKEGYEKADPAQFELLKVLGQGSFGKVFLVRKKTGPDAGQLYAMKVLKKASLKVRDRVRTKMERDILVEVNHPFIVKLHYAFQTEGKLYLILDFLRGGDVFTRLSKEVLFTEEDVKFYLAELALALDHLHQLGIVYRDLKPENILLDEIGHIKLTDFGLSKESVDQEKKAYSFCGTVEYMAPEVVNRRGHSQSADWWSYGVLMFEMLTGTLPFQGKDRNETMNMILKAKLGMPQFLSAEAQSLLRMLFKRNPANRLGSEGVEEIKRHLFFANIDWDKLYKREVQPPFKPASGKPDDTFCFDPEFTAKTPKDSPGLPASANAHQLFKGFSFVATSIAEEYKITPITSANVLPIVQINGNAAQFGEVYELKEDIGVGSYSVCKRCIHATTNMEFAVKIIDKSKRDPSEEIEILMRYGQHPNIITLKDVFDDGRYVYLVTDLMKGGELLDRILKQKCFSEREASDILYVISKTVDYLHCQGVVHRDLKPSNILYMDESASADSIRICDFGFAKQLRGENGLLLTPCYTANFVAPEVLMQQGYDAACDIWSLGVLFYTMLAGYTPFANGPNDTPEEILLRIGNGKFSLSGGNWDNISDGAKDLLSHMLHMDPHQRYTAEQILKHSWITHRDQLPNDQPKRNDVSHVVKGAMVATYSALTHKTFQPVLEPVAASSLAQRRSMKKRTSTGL
# [3] = target: Wee1-like protein kinase (Homo sapiens) (UniProt P30291); test: Inhibition of WEE1 (unknown origin) assessed as residual activity at 100 nM by KINOMEscan analysis relative to control
# Chain of Wee1-like protein kinase (Homo sapiens) (P30291 whole entry, looked up): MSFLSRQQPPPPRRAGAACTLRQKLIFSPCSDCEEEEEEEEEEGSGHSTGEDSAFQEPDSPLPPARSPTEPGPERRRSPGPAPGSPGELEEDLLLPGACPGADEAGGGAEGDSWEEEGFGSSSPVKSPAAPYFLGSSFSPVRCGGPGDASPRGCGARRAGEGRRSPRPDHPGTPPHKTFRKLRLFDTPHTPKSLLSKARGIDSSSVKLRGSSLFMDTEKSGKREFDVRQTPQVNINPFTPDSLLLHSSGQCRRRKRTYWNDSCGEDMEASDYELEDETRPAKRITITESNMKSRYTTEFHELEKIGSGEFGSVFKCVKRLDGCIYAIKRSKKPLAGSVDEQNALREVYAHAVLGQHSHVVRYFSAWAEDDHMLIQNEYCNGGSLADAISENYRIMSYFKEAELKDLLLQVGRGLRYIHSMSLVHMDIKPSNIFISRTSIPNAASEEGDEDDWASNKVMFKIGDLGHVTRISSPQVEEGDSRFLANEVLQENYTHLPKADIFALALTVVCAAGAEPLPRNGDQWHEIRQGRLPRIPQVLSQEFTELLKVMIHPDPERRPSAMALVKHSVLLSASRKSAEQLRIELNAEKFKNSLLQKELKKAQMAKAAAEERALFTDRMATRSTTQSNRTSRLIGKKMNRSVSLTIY
# [4] = target: T1, Mitogen-activated protein kinase kinase kinase kinase 2 (Homo sapiens) (UniProt Q12851); test: Inhibition of MAP4K2 (unknown origin) assessed as residual activity at 100 nM by KINOMEscan analysis relative to control
# T1 sequence (whole entry): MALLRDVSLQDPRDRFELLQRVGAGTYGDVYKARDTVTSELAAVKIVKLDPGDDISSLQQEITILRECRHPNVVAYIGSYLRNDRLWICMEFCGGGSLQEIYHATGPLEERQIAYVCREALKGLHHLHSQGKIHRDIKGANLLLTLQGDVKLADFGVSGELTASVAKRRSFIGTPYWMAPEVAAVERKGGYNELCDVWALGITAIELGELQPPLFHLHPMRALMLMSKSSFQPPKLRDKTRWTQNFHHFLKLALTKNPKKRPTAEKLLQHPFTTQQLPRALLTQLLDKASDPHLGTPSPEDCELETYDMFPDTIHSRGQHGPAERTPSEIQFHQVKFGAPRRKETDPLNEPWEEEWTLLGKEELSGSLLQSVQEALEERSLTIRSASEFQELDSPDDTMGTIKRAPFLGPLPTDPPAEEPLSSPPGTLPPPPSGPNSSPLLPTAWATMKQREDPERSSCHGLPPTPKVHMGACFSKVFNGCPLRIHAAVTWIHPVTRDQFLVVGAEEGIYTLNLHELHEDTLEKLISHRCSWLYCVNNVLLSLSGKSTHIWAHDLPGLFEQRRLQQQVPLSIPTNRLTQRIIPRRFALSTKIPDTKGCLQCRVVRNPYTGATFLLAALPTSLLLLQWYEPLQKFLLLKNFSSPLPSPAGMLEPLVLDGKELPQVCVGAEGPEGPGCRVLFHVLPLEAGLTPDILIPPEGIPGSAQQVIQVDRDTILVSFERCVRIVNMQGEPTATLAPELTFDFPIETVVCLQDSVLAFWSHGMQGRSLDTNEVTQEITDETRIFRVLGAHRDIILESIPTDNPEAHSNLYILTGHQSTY
# [5] = target: Leukocyte tyrosine kinase receptor (Homo sapiens) (UniProt P29376); test: Inhibition of LTK (unknown origin) assessed as residual activity at 100 nM by KINOMEscan analysis relative to control
# Chain of Leukocyte tyrosine kinase receptor (Homo sapiens) (P29376 whole entry): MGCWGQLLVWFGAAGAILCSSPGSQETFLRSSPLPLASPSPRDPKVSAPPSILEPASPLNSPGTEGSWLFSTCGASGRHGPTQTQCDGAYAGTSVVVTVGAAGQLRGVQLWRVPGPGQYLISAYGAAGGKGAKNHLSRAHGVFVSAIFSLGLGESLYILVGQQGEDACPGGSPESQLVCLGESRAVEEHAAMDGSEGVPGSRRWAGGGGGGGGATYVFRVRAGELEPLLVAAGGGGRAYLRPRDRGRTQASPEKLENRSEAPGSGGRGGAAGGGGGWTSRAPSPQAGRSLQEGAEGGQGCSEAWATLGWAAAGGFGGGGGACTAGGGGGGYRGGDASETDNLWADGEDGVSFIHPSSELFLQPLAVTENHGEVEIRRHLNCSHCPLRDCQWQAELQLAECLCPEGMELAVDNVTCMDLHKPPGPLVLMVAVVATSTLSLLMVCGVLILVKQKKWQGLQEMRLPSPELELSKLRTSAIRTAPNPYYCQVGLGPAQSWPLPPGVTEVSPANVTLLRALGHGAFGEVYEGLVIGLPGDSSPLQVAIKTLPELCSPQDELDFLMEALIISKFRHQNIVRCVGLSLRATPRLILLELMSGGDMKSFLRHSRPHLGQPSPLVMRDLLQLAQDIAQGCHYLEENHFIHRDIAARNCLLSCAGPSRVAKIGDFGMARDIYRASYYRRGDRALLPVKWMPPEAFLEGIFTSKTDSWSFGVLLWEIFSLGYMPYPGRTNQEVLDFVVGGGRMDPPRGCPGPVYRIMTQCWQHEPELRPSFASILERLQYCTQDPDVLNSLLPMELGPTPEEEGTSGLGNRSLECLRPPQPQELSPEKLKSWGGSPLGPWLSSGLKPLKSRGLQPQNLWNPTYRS
# [6] = target: T2, Mitogen-activated protein kinase 12 (Homo sapiens) (UniProt P53778); test: Inhibition of p38-gamma (unknown origin) assessed as residual activity at 100 nM by KINOMEscan analysis relative to control
# T2 sequence (whole entry): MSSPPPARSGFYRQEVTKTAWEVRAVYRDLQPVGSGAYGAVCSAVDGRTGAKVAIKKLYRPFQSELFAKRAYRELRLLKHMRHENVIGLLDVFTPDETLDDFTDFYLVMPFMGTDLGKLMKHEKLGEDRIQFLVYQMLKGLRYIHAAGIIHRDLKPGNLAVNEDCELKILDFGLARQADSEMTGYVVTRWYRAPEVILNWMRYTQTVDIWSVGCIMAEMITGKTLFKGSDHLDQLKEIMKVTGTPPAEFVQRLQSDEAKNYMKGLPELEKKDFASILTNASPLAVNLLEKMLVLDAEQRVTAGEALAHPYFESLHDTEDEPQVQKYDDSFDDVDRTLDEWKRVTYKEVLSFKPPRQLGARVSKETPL
# [7] = target: T3, Aurora kinase A (Homo sapiens) (UniProt O14965); test: Inhibition of AURKA (unknown origin) assessed as residual activity at 100 nM by KINOMEscan analysis relative to control
# T3 sequence (whole entry): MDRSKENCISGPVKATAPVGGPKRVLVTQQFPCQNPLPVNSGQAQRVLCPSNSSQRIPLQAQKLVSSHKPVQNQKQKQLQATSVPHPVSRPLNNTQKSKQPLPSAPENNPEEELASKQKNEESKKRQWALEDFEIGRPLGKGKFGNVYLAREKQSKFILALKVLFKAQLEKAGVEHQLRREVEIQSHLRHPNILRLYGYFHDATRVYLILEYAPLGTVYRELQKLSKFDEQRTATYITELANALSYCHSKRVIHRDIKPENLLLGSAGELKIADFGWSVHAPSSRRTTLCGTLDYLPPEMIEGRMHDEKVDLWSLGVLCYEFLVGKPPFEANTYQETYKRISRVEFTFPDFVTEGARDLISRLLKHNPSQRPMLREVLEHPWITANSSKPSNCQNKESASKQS
# [8] = target: T4, Serine/threonine-protein kinase NLK (Homo sapiens) (UniProt Q9UBE8); test: Inhibition of NLK (unknown origin) assessed as residual activity at 100 nM by KINOMEscan analysis relative to control
# T4 sequence (whole entry): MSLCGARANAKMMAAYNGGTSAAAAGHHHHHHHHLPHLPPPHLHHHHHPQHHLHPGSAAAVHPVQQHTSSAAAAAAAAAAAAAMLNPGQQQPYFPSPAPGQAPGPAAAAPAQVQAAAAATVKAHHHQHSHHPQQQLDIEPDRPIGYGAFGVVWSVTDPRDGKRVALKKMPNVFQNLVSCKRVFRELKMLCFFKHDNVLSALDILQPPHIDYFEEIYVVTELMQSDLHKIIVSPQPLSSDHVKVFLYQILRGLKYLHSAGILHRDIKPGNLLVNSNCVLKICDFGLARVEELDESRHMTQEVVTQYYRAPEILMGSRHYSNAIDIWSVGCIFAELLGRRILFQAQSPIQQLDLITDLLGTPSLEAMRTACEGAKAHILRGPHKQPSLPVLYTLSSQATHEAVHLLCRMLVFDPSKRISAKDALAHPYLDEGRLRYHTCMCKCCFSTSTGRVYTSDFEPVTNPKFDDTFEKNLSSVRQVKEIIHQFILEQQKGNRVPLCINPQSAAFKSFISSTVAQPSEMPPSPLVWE
# [9] = target: Tyrosine-protein kinase ABL2 (Homo sapiens) (UniProt P42684); test: Inhibition of ABL2 (unknown origin) assessed as residual activity at 100 nM by KINOMEscan analysis relative to control
# Chain of Tyrosine-protein kinase ABL2 (Homo sapiens) (P42684 whole entry): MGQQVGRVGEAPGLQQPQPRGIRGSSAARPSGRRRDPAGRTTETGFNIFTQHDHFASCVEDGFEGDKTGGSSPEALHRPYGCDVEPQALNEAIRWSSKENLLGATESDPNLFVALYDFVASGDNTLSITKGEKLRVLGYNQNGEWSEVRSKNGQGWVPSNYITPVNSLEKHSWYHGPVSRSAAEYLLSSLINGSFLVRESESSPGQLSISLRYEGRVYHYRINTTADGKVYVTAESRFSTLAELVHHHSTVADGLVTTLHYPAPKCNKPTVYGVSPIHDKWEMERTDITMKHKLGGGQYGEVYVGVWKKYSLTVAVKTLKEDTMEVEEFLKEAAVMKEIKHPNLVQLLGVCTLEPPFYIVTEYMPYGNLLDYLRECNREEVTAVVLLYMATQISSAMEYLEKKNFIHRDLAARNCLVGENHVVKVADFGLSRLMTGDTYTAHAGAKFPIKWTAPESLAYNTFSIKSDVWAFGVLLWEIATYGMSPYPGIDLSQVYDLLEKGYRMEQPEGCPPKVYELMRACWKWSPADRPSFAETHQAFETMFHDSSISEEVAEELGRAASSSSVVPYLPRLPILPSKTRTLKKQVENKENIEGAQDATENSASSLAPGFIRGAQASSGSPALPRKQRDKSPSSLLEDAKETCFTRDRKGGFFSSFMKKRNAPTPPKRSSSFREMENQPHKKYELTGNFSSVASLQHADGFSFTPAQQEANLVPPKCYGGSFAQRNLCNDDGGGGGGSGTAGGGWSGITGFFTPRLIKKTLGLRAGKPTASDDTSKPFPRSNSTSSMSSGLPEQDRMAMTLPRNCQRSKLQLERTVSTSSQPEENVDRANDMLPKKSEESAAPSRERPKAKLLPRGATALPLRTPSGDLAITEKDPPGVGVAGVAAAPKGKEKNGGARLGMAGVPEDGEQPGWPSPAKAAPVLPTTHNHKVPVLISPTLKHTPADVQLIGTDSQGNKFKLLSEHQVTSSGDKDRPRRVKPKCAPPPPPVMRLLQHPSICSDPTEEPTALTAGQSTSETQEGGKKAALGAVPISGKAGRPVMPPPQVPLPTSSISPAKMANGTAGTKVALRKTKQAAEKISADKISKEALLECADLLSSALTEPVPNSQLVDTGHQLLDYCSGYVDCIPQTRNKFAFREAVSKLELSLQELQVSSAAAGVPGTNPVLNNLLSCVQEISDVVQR
# [10] = tested on: Mast/stem cell growth factor receptor Kit (Homo sapiens), P10721 [D816V]; test: Inhibition of KIT D816V mutant (unknown origin) assessed as residual activity at 100 nM by KINOMEscan analysis relative to control
# Chain of Mast/stem cell growth factor receptor Kit (Homo sapiens), P10721 [D816V] (P10721 whole entry D816V): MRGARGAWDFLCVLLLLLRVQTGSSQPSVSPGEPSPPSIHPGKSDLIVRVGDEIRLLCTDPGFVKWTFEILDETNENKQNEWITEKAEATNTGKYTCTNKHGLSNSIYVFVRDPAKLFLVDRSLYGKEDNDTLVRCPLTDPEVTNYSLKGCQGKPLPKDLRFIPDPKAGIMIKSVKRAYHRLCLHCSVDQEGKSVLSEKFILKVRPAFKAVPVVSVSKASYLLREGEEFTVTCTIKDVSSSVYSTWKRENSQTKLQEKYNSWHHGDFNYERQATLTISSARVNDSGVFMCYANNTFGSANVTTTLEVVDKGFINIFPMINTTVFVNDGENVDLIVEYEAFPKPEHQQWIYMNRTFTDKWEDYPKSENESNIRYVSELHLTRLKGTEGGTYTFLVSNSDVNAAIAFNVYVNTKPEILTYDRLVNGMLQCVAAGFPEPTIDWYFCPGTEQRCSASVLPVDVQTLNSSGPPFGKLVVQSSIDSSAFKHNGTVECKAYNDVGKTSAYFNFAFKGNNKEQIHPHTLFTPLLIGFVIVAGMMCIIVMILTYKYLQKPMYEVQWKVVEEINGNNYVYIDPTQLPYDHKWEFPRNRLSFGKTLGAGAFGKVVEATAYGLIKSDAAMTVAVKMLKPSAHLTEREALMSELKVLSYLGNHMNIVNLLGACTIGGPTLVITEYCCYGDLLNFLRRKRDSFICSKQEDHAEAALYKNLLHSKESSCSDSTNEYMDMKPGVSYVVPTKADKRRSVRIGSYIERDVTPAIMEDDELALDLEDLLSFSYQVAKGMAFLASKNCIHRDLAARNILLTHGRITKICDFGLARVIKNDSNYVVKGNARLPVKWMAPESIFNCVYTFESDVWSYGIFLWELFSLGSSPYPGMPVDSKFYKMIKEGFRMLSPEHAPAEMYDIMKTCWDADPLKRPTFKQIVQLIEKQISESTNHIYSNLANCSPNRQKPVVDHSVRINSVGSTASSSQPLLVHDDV
# [11] = target: Bone morphogenetic protein receptor type-1B (Homo sapiens) (UniProt O00238); test: Inhibition of BMPR1B (unknown origin) assessed as residual activity at 100 nM by KINOMEscan analysis relative to control
# Chain of RAC-alpha serine/threonine-protein kinase (Homo sapiens) (P31749 whole entry, the tested form may be a part): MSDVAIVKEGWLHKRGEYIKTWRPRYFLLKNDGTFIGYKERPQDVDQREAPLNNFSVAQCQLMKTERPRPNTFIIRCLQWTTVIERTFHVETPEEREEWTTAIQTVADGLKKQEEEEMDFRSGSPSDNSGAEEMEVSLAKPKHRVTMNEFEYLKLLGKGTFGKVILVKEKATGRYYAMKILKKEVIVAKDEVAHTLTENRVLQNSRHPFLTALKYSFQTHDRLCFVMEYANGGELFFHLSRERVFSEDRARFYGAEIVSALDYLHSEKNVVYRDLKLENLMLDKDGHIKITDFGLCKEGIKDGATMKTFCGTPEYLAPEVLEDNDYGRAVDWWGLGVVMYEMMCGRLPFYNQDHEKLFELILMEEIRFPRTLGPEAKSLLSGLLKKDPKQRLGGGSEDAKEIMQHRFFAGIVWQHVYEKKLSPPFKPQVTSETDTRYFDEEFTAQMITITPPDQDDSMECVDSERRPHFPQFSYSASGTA
smiles,measurement,setting,value
COc1cc2ncnc(N[C@H](C)c3cccc4ccccc34)c2cc1OC,Activity,[1],79%
same,Activity,[2],86%
same,Activity,[3],88%
same,Activity,[4],83%
same,Activity,[5],97%
same,Activity,[6],96%
same,Activity,[7],100%
same,Activity,[8],82%
same,Activity,[9],81%
same,Activity,[10],73%
same,Activity,[11],92%
